Legend:
[1] = test system: bioburden (bacteria) on porcine dermis; experiment: Effect of pulse length on bioburden of porcine dermis electroporated in PAA; type: cell-based; conditions: 0.2% PAA
Procedure: […] 0 ms pulses were used as a control condition. All conditions were tested in triplicates.
Electroporation plates (1 cm by 2 cm conducting metal plates) were set 2 mm apart and a 1 mm thick piece of tissue was placed between them. Pulse voltage was set at 80V. Following electroporation each piece of tissue was removed and rinsed in a PAA neutralizing wash for 5 minutes and then placed in 10 ml of PBS.
Stomaching was used to extract the bacteria from each piece of tissue and bacteria counts were performed following incubation of culture plates for 2 days at 37° C. […] Minimal bacterial colony forming units (CFU) were detected on tissue samples following 15 ms pulse.

[2] = test system: bacteria present on tissue samples; experiment: Effect of pulse voltage on bacteria counts of porcine dermis electroporated in PAA; type: cell-based; conditions: 0.2% PAA; for bacteria count: 10 ms, triplicates
Procedure: (§1) To determine the impact of pulse voltage on bacteria present on tissue samples, 1 cm by 1 cm pieces of porcine dermis (1 mm thickness) were electroporated in 2 ml of 0.2% peracetic acid (PAA) at three different pulse voltages: 0V, 40V and 80V. The 0V samples were used as a control condition. Electroporation plates (1 cm by 2 cm conducting metal plates) were set 2 mm apart and a 1 mm thick piece of tissue was placed between them. Electrical pulses were delivered for 10 ms. All conditions were tested in triplicates.
Following electroporation each piece of tissue was removed and rinsed in a PAA neutralizing wash for 5 minutes and then placed in 10 ml of phosphate buffered saline (PBS). The purpose of the neutralizing wash was to prevent further bacterial kill from residual PAA following electroporation that could confound the results.
Stomaching was used to extract the bacteria from each piece of tissue and bacteria counts were performed following incubation of culture plates for 2 days at 37° C. Stomaching is a mechanical extraction method used to remove microorganisms from samples of foods, fabrics, swabs, or other soft materials such as human or animal tissue. […] The resulting compression and shearing forces elute deep-seated bacteria. Once the agitation process is completed, samples of the eluent are taken for microbial enumeration and subsequent identification.

[3] = H&E histological examination of porcine dermis after electroporation; conditions: 0.2% PAA
Procedure: FIG. 1A-C show hematoxylin and eosin (H&E) staining of 1 cm by 1 cm samples of porcine dermis after exposure for 15 milliseconds to one electrical pulse of 0V (FIG. 1A), 40V (FIG. 1B), or 80V (FIG. 1C), according to certain embodiments of the present disclosure.
as §1
The tissue samples exposed to 40V and 80V pulse voltages had 0 bacteria. […] Porcine dermis was also stained using hematoxylin and eosin (H&E).

SMILES: CC(=O)OO [PAA, peracetic acid]
- Viable Cell Count ([1]; 80V, pulse length 1 ms, 100 pulses): 430 CFU
- Viable Cell Count ([1]; 80V, pulse length 5 ms, 1 pulse): 300 CFU
- Viable Cell Count ([1]; 80V, pulse length 10 ms, 1 pulse): 140 CFU
- Viable Cell Count ([1]; pulse length 0 ms, no pulses (control condition)): 26000 CFU
- bacterial colonies ([2]; 0V (control condition, no pulse)): too numerous to count
- bacteria count ([2]; 40V pulse): 0
- bacteria count ([2]; 80V pulse): 0
- changes in the collagen structure (H&E histology) ([3]; exposure to 40 volts): no detectable change
- changes in the collagen structure (H&E histology) ([3]; exposure to 80 volts): potential changes in the collagen structure
